SMILES strings stand for the structures.

From patent US10307350B2, “Morphogenetically active amorphous calcium polyphosphate nanoparticles for therapeutic applications” (NanotecMARIN GmbH, priority 2014, dated 2019) come the findings set out here.

What all share (assay type): cell-based, mouse
The subject of assay [1] is collagen type III (COL-III). Description: Collagen expression RT-qPCR in MC3T3-E1 cells, collagen type III. To be noted: single component: 3 μM retinol alone, or polyP sample in the absence of retinol; untreated 0.17±0.02. How it is done:
Mouse calvaria cells MC3T3-E1 cells (ATCC-CRL-2593) are used for the experiments and cultivated in a-MEM (Gibco-Invitrogen) containing 20% fetal calf serum [FCS] (Gibco). The medium contains 2 mM L-glutamine, 1 mM Na-pyruvate and 50 μg/ml of gentamycin. […] Reaching 80% confluency, the cells are detached using trypsin/EDTA and continuously subcultured at a density of 5·10^3 cells/ml. The cells are seeded at a density of 5·10^3 cells/well. Medium/serum change was every 3 d. The aCa-polyP-NP are added at the indicated concentration to the cultures, usually 3 μg/ml. Retinol is added in parallel; it is dissolved at 1 mg/ml ethanol and then diluted in DMSO [dimethyl sulfoxide] at the indicated concentrations. […], Wang […], Kropf […]. […] Acta Biomaterialia 2011; 7:2661-2671) is studied in parallel. […] After a 5 d incubation period the cells were collected and subjected to RT-qPCR analyses. […] The effect of 3 μM retinol on Na-polyP and on different nanoparticles as well as on the retinol/nanospheres was tested in a comparative way. The expression level of collagen type III was determined by RT-qPCR (FIG. 11). The expression values are correlated to the expression of the house-keeping gene GAPDH. […] Then the ratios between the levels in the cells, exposed to retinol or the nanoparticles/nanospheres alone or together, have been calculated and plotted.

Assay [2] has as its system MC3T3 cells. As to the kind of experiment: Cell proliferation / cell viability XTT assay. To be noted: retinol 0.3 to 30 μM, absence of aCa-polyP-NP, 72 h. How it is done:
(§1) Mouse calvaria cells MC3T3-E1 cells (ATCC-CRL-2593) are used for the experiments and cultivated in a-MEM (Gibco—Invitrogen) containing 20% fetal calf serum [FCS] (Gibco). The medium contains 2 mM L-glutamine, 1 mM Na-pyruvate and 50 μg/ml of gentamycin. […] Reaching 80% confluency, the cells are detached using trypsin/EDTA and continuously subcultured at a density of 5·10^3 cells/ml. The cells are seeded at a density of 5·10^3 cells/well. Medium/serum change was every 3 d.
The aCa-polyP-NP are added at the indicated concentration to the cultures, usually 3 μg/ml. Retinol is added in parallel; it is dissolved at 1 mg/ml ethanol and then diluted in DMSO [dimethyl sulfoxide] at the indicated concentrations. […]
Cell proliferation can be determined, for example, by a colorimetric method based on the tetrazolium salt XTT (Cell Proliferation Kit II; Roche). The absorbance is determined at […] and subtracted form the background values (500 nm). In the experiments described in Examples, the viable cells have been determined after 72 h.

For assay [3], the system named is MC3T3 cells. Description: Microscopic density of attached cells after 72 h. The note with it: single component: aCa-polyP-NP 3 μg/ml or retinol 10 μM. Here is the method:
as §1
This synergistically-acting effect of the two test components can also be followed microscopically. In the absence of any of the components the density of the MC3T3 cells after the 72 h incubation is only low. […] Likewise low is the number of cells onto the plastic surface if 10 μM retinol is added.

Take `CC1=C(/C=C/C(C)=C/C=C/C(C)=C/CO)C(C)(C)CCC1` [retinol, all-trans retinol]: the “collagen type III expression level correlated to GAPDH” value in assay [1] is 0.25±0.03. The “growth rate of the MC3T3 cells” value with MC3T3 cells [2] is on record as “did not change significantly”. The “density of the cells attached to the substrate” value with MC3T3 cells [3] is recorded as “low”.
